The source of these data is patent US6624157B2, “Thiadioxobenzodiazepine inhibitors of farnesyl protein transferase” (Bristol-Myers Squibb Company, priority 1996, dated 2003).

Structures can show the parent of a compound that is named as a salt.

The compound `O=S1(=O)c2ccccc2N(Cc2cnc[nH]2)CCN1CCc1ccccc1` (as salt: hydrochloride) [Example 2, 2,3,4,5-Tetrahydro-5-(1H-imidazol-4-ylmethyl)-2-(2-phenylethyl)-1,2,5-benzothiadiazepine, 1,1-dioxide, monohydrochloride] returned a melting point of 95 °C.
`O=S1(=O)c2ccccc2N(Cc2cnc[nH]2)CCN1Cc1cccc2ccccc12` (as salt: hydrochloride) [Example 1, 2,3,4,5-Tetrahydro-5-(1H-imidazol-4-ylmethyl)-2-(1-naphthalenylmethyl)-1,2,5-benzothiadiazepine, 1,1-dioxide, monohydrochloride] gave a melting point of 128 °C.
For `CN1C(Cc2ccccc2)CN(Cc2cnc[nH]2)c2ccc(Br)cc2S1(=O)=O` (stereo not shown) (as salt: hydrochloride) [Example 10, 2,3,4,5-Tetrahydro-8-bromo-2-methyl-5-(1H-imidazol-4-ylmethyl)-3-(phenylmethyl)-1,2,5-benzothiadiazepine, 1,1-dioxide, monohydrochloride] the value was 140 °C; for `O=S1(=O)NC(Cc2ccccc2)CN(Cc2cnc[nH]2)c2ccc(Br)cc21` (stereo not shown) (as salt: hydrochloride) [Example 9, N-[2,3,4,5-Tetrahydro-8-bromo-5-(1H-imidazol-4-ylmethyl)-3-(phenylmethyl)-1,2,5-benzothiadiazepine, 1,1-dioxide, monohydrochloride], 180 °C.
